The values below come from US8802711B2, “TRPV1 antagonists” (AbbVie Inc., priority 2011, dated 2014).

Assay [1] concerns the target T1, human TRPV1 receptor (hTRPV1) (Homo sapiens (Human), UniProt Q8NER1). Description: Capsaicin activation assay (FLIPR intracellular Ca2+). In kind it is cell-based. The following applies: Table 1; inhibition of capsaicin-induced intracellular Ca2+ increase, HEK293 cells expressing human TRPV1; read-out: hTRPV1 cap IC50. An outline of the steps: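 HEK293 cells stably expressing human TRPV1, loaded with Calcium-4 dye 90–120 min at room temperature, preincubated 3 min with compound (12-point one-third-log range) before capsaicin (200 nM as 4× solution). Peak FLIPR fluorescence minus baseline expressed as percent of 50 nM capsaicin control response.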

In assay [2] the target is T1, human TRPV1 receptor (hTRPV1). The assay is described as follows: Acid activation assay (pH 5.0, FLIPR intracellular Ca2+). The class given is cell-based. The following applies: Table 1, 37.5 μM antagonist, percentage of the maximal pH 5.0-induced response remaining; for remaining activity at 37.5 µM: read-out: hTRPV1 H+ (max % remain). An outline of the steps: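 1321N1 astrocytoma cells stably expressing homomeric hTRPV1, loaded with Calcium-4 dye 90–120 min at 25 °C. Compounds, 12-point half-log range, added 3 min before pH 5.0 DPBS/MES challenge; intracellular Ca2+ read by FLIPR fluorescence.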

pIC50: −log10 of the molar value.

T1 sequence (Q8NER1 whole entry): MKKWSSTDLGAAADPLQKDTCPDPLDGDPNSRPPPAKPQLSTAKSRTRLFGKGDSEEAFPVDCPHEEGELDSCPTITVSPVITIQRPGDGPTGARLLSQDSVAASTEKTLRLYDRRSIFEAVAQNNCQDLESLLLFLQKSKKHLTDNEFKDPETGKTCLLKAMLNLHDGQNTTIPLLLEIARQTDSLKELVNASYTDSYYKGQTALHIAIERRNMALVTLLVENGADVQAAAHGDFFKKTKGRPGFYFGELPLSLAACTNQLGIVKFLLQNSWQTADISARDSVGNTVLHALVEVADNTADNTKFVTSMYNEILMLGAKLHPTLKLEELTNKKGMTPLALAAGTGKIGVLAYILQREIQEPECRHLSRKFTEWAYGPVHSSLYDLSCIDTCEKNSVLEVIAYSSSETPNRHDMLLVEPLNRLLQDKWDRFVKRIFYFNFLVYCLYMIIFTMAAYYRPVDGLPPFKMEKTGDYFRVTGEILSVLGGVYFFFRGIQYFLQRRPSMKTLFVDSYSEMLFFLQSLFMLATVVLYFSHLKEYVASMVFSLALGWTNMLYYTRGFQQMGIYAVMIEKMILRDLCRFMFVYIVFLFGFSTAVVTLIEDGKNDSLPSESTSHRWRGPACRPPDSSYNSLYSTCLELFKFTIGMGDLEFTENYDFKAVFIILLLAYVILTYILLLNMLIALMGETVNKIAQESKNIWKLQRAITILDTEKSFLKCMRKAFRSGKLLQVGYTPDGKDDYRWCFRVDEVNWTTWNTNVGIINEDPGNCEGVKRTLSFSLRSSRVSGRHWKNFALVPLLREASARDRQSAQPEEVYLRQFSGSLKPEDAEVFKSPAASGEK

Turning to `Cc1cc2c(NC(=O)N[C@H]3CC[C@@H](c4ccccc4F)C3)c(F)ccc2cn1` [Example 83, 1-(6-fluoro-3-methylisoquinolin-5-yl)-3-[(1S,3R)-3-(2-fluorophenyl)cyclopentyl]urea], in assay [1], the pIC50 was 8.28. The remaining activity at 37.5 µM in assay [2] turned out to be 48%.
Regarding `Cc1cc2c(NC(=O)N[C@@H]3CC[C@@H](c4cccc(F)c4)C3)c(F)ccc2cn1` [Example 84, 1-(6-fluoro-3-methylisoquinolin-5-yl)-3-[(1R,3R)-3-(3-fluorophenyl)cyclopentyl]urea], the pIC50 in assay [1] was 8.27. For the same compound, in assay [2], the remaining activity at 37.5 µM was 13%.
For `Cc1cc2c(NC(=O)N[C@H]3CC[C@@H](c4cccc(F)c4)C3)c(F)ccc2cn1` [Example 85, 1-(6-fluoro-3-methylisoquinolin-5-yl)-3-[(1S,3R)-3-(3-fluorophenyl)cyclopentyl]urea], the pIC50 in assay [1] is 8.05. In assay [2], the remaining activity at 37.5 µM is 21%.
For the compound `O=C(Nc1cccc2c1C[C@@H](O)C2)N[C@@H]1CC[C@@H](c2cccc(F)c2)C1` [Example 86, 1-[(1R,3R)-3-(3-fluorophenyl)cyclopentyl]-3-[(2S)-2-hydroxy-2,3-dihydro-1H-inden-4-yl]urea], in assay [1], the pIC50 was 7.10. Further, in assay [2], the remaining activity at 37.5 µM came out at 0%.
For the compound `O=C(Nc1cccc2c1C[C@@H](O)C2)N[C@H]1CC[C@@H](c2cccc(F)c2)C1` [Example 87, 1-[(1S,3R)-3-(3-fluorophenyl)cyclopentyl]-3-[(2S)-2-hydroxy-2,3-dihydro-1H-inden-4-yl]urea], the pIC50 in assay [1] is 6.61. Also, in assay [2], the remaining activity at 37.5 µM turned out to be 17%.
The corresponding values for `O=C(Nc1cccc2c1C[C@@H](O)C2)N[C@@H]1CC[C@@H](c2ccccc2F)C1` [Example 88, 1-[(1R,3R)-3-(2-fluorophenyl)cyclopentyl]-3-[(2S)-2-hydroxy-2,3-dihydro-1H-inden-4-yl]urea] are 7.70 and 16%.
As to `O=C(Nc1cccc2c1C[C@@H](O)C2)N[C@H]1CC[C@@H](c2ccccc2F)C1` [Example 89, 1-[(1S,3R)-3-(2-fluorophenyl)cyclopentyl]-3-[(2S)-2-hydroxy-2,3-dihydro-1H-inden-4-yl]urea], in assay [1], the pIC50 is 7.06. Also, in assay [2], the remaining activity at 37.5 µM was found to be 15%.
In the same order, the values of `O=C(Nc1cccc2c1C[C@H](O)C2)N[C@@H]1CC[C@@H](c2cccc(F)c2)C1` [Example 90, 1-[(1R,3R)-3-(3-fluorophenyl)cyclopentyl]-3-[(2R)-2-hydroxy-2,3-dihydro-1H-inden-4-yl]urea] are 6.96 and 54%.
`O=C(Nc1cccc2c1C[C@H](O)C2)N[C@H]1CC[C@@H](c2cccc(F)c2)C1` [Example 91, 1-[(1S,3R)-3-(3-fluorophenyl)cyclopentyl]-3-[(2R)-2-hydroxy-2,3-dihydro-1H-inden-4-yl]urea]: the pIC50 in assay [1] is 6.47. For the same compound, the remaining activity at 37.5 µM in assay [2] turned out to be 63%.
On to `O=C(Nc1cccc2c1C[C@H](O)C2)N[C@@H]1CC[C@@H](c2ccccc2F)C1` [Example 92, 1-[(1R,3R)-3-(2-fluorophenyl)cyclopentyl]-3-[(2R)-2-hydroxy-2,3-dihydro-1H-inden-4-yl]urea], for which the pIC50 in assay [1] was 7.10. In addition, the remaining activity at 37.5 µM in assay [2] stood at 66%.
On to `O=C(Nc1cccc2c1C[C@H](O)C2)N[C@H]1CC[C@@H](c2ccccc2F)C1` [Example 93, 1-[(1S,3R)-3-(2-fluorophenyl)cyclopentyl]-3-[(2R)-2-hydroxy-2,3-dihydro-1H-inden-4-yl]urea], for which the pIC50 in assay [1] was 7.03. Moreover, the remaining activity at 37.5 µM in assay [2] came out at 55%.
In the same order, the values of `CN1C(=O)CCc2c(NC(=O)N[C@@H]3CC[C@H](c4ccccc4)C3)cccc21` [Example 94, 1-(1-methyl-2-oxo-1,2,3,4-tetrahydroquinolin-5-yl)-3-[(1R,3S)-3-phenylcyclopentyl]urea] are 7.85 and 46%.
Regarding `CN1C(=O)CCc2c(NC(=O)N[C@H]3CC[C@@H](c4ccccc4)C3)cccc21` [Example 95, 1-(1-methyl-2-oxo-1,2,3,4-tetrahydroquinolin-5-yl)-3-[(1S,3R)-3-phenylcyclopentyl]urea], in assay [1], the pIC50 is 7.24. Besides, the remaining activity at 37.5 µM in assay [2] amounted to 34%.
The corresponding values for `CN1C(=O)CCc2c(NC(=O)N[C@@H]3CC[C@@H](c4cccc(F)c4)C3)cccc21` [Example 97, 1-[(1R,3R)-3-(3-fluorophenyl)cyclopentyl]-3-(1-methyl-2-oxo-1,2,3,4-tetrahydroquinolin-5-yl)urea] are 7.16 and 46%.
The corresponding values for `CN1C(=O)CCc2c(NC(=O)N[C@H]3CC[C@@H](c4cccc(F)c4)C3)cccc21` [Example 98, 1-[(1S,3R)-3-(3-fluorophenyl)cyclopentyl]-3-(1-methyl-2-oxo-1,2,3,4-tetrahydroquinolin-5-yl)urea] are 7.27 and 32%.
On to `CN1C(=O)CCc2c(NC(=O)N[C@@H]3CC[C@@H](c4ccccc4F)C3)cccc21` [Example 99, 1-[(1R,3R)-3-(2-fluorophenyl)cyclopentyl]-3-(1-methyl-2-oxo-1,2,3,4-tetrahydroquinolin-5-yl)urea], for which the pIC50 in assay [1] is 7.80. Also, the remaining activity at 37.5 µM in assay [2] was found to be 46%.
On to `CN1C(=O)CCc2c(NC(=O)N[C@H]3CC[C@@H](c4ccccc4F)C3)cccc21` [Example 100, 1-[(1S,3R)-3-(2-fluorophenyl)cyclopentyl]-3-(1-methyl-2-oxo-1,2,3,4-tetrahydroquinolin-5-yl)urea], for which the pIC50 in assay [1] is 7.60. The remaining activity at 37.5 µM in assay [2] was found to be 43%.
`Cn1ncc2c(NC(=O)N[C@@H]3CC[C@@H](c4cccc(F)c4)C3)cccc21` [Example 101, 1-[(1R,3R)-3-(3-fluorophenyl)cyclopentyl]-3-(1-methyl-420-1-21H-indazol-4-yl)urea]: the pIC50 in assay [1] is 7.60. Besides, the “hTRPV1 H+ (max % remain)” value in assay [2] was found to be 4%.
Regarding `Cn1ncc2c(NC(=O)N[C@H]3CC[C@@H](c4cccc(F)c4)C3)cccc21` [Example 102, 1-[(1S,3R)-3-(3-fluorophenyl)cyclopentyl]-3-(1-methyl-1H-indazol-4-yl)urea], in assay [1], the pIC50 was 6.66. Further, the remaining activity at 37.5 µM in assay [2] was determined as 34%.
With `Cn1ncc2c(NC(=O)N[C@@H]3CC[C@@H](c4ccccc4F)C3)cccc21` [Example 103, 1-[(1R,3R)-3-(2-fluorophenyl)cyclopentyl]-3-(1-methyl-1H-indazol-4-yl)urea], the pIC50 in assay [1] was 7.85. Moreover, in assay [2], the remaining activity at 37.5 µM came to 19%.
With `Cn1ncc2c(NC(=O)N[C@H]3CC[C@@H](c4ccccc4F)C3)cccc21` [Example 104, 1-[(1S,3R)-3-(2-fluorophenyl)cyclopentyl]-3-(1-methyl-1H-indazol-4-yl)urea], the pIC50 in assay [1] is 7.01. In addition, in assay [2], the remaining activity at 37.5 µM was 42%.
Take `CN1C(=O)CCc2ccc(NC(=O)N[C@H]3CC[C@@H](c4ccccc4)C3)cc21` [Example 105, 1-(1-methyl-2-oxo-1,2,3,4-tetrahydroquinolin-7-yl)-3-[(1S,3R)-3-phenylcyclopentyl]urea]: the pIC50 in assay [1] was 6.02. Further, the remaining activity at 37.5 µM in assay [2] was 91%.
`CN1C(=O)CCc2ccc(NC(=O)N[C@H]3CC[C@H](c4ccccc4)C3)cc21` [Example 106, 1-(1-methyl-2-oxo-1,2,3,4-tetrahydroquinolin-7-yl)-3-[(1S,3S)-3-phenylcyclopentyl]urea]: in assay [1], the pIC50 was less than 4.43. The remaining activity at 37.5 µM in assay [2] was determined as 75%.
With `CN1C(=O)CCc2ccc(NC(=O)N[C@@H]3CC[C@@H](c4cccc(F)c4)C3)cc21` [Example 107, 1-[(1R,3R)-3-(3-fluorophenyl)cyclopentyl]-3-(1-methyl-2-oxo-1,2,3,4-tetrahydroquinolin-7-yl)urea], the pIC50 in assay [1] was less than 4.43. Besides, in assay [2], the remaining activity at 37.5 µM came out at 77%.
On to `CN1C(=O)CCc2ccc(NC(=O)N[C@H]3CC[C@@H](c4cccc(F)c4)C3)cc21` [Example 108, 1-[(1S,3R)-3-(3-fluorophenyl)cyclopentyl]-3-(1-methyl-2-oxo-1,2,3,4-tetrahydroquinolin-7-yl)urea], for which the pIC50 in assay [1] was 6.09. Also, in assay [2], the remaining activity at 37.5 µM came to 88%.
Take `CN1C(=O)CCc2ccc(NC(=O)N[C@@H]3CC[C@@H](c4ccccc4F)C3)cc21` [Example 109, 1-[(1R,3R)-3-(2-fluorophenyl)cyclopentyl]-3-(1-methyl-2-oxo-1,2,3,4-tetrahydroquinolin-7-yl)urea]: the pIC50 in assay [1] was less than 4.43. In assay [2], the remaining activity at 37.5 µM was found to be 76%.
In the case of `CN1C(=O)CCc2ccc(NC(=O)N[C@H]3CC[C@@H](c4ccccc4F)C3)cc21` [Example 110, 1-[(1S,3R)-3-(2-fluorophenyl)cyclopentyl]-3-(1-methyl-2-oxo-1,2,3,4-tetrahydroquinolin-7-yl)urea], in assay [1], the pIC50 was less than 4.43. Further, in assay [2], the remaining activity at 37.5 µM came to 72%.
In the same order, the values of `O=C(Nc1cccc2c1CCC2)N[C@@H]1CC[C@H](c2ccccc2)C1` [Example 111, 1-(2,3-dihydro-1H-inden-4-yl)-3-[(1R,3S)-3-phenylcyclopentyl]urea] are 6.44 and 32%.
On to `O=C(Nc1cccc2c1CCC2)N[C@H]1CC[C@H](c2ccccc2)C1` [Example 112, 1-(2,3-dihydro-1H-inden-4-yl)-3-[(1S,3S)-3-phenylcyclopentyl]urea], for which the pIC50 in assay [1] was 5.86. Moreover, the remaining activity at 37.5 µM in assay [2] was found to be 35%.

Usually pIC50 stands for −log10 of the IC50, conventionally taken in molar units.
